Results: US20240287054A1, “COMPOUNDS THAT BIND NON-CANONICAL G-QUADRUPLEX STRUCTURES AND METHODS OF MAKING AND USING THE SAME” (The U.S.A., as Represented by the Secretary, Department of …, priority 2021, published 2024)
Read-outs that look alike come from different tables or passages of the source.

Key:
MYCN G4 DNA [1] = assay: Circular dichroism (CD) thermal melting assay of MYCN G4; type: binding, human; settings: for increase of Tm (ΔTm) of MYCN G4: 20 μM compound, 10 mM Tris pH 7.0, 5 mM KCl
Experimental: For thermal melt assay, MYCN oligonucleotides were prepared in a low KCl buffer (10 mM Tris, pH7.0, 5 mM KCl) at 5 μM concentration. To test the stabilization effect, G4 samples were incubated with and without 20 μM compound (final solution containing 5% DMSO). Then a total of 300 μL solution was added in a cuvette and heated from 20° C. to 95° C. in a CD spectrometer with an interval of 1° C. To calculate the melting temperature (Tm), the peak of CD spectrum at 263 nm was tracked, and […] vs temperature was plotted and fitted using a nonlinear sigmoidal dose-response model with a variable slope in GraphPad Prism 8 software. The shifting of melting temperature (ΔTm) was calculated using Tm (compound)−Tm (DMSO).
For CD melting assay, MYCN oligonucleotides were prepared in KCl buffer (10 mM sodium phosphate, pH7.0, 5 mM KCl) at 5 μM concentration. To test the stabilization effect of the compounds, MYCN G4 DNA samples were mixed with/without the compound (final solution containing 5% DMSO) at designed concentration. Then a total of 300 μL solution was added in a cuvette and heated from 20 to 80° C. in a CD spectrometer with an interval of 1° C. To calculate the melting temperature (Tm), the peak of CD spectrum at 263 nm was tracked, and […] vs temperature was plotted and fitted using a nonlinear sigmoidal dose-response model with a variable slope in GraphPad Prism 8 software.

MYCN G4 DNA [2] = assay: Surface plasmon resonance (SPR) with immobilized biotinylated MYCN G4 DNA; type: binding, human; settings: for positive binding in SPR (SNR>3): single concentration 100 μM compound
Experimental: Surface plasmon resonance (SPR) analysis. The SPR binding assays were performed with a BIAcore 3000 (GE Healthcare) instrument. A CM5 SPR biochip was loaded into the system and primed with running buffer (10 mM Tris, pH7.0, 100 mM KCl, 0.005% Tween 20, 5% DMSO) with a flow rate of 5 μL/min. Then both Flow Cell (Fc) 1 and 2 were activated by EDC/NHS (0.4 M/0.1 M) aqueous solution for 15 min, followed with an injection of streptavidin (SA) solution (0.2 mg/mL in 10 mM sodium acetate buffer, pH4.5) for 30 minutes. After the immobilization amount of SA reached 8,000-10,000 RU, the surface was deactivated by flowing 1 M Ethanolamine aqueous solution (pH 8.5) for 10 min and regenerated with 10 mM NaOH for 2 min to remove the unbound SA. In the meantime, biotinylated MYCN G4 DNA was prepared at 5 μM in the annealing buffer and heated up to 95° C. for 5 min and slowly cooled down. After annealing, a total of 150 μL solution was injected in the Fc 2 of SPR system for 30 min to immobilize DNA onto the chip surface. The small molecule solutions were tested once the baseline was stable.
To detect the binding signal as well as the binding affinity, a higher flowing rate (25 μL/min) was used in both Fc 1 (reference) and Fc 2 (DNA). Each of the compound solution was prepared at 20× designed the concentrations in DMSO, and then diluted into non-DMSO running buffer, resulting in a final concentration of 5% DMSO. Then, a total of 50 μL compound solution was injected in Fc 1-2 flow path for 120 s for association, followed with 200 s running of buffer for dissociation. An injection of 50 μL regeneration buffer (1 M KCl) could be performed between two samples if necessary. The final binding curve was obtained by reference subtraction. To determine the binding affinity (KD), a series of diluted compound solutions were injected and KD was calculated by BIAevaluation 4.0 software (GE Healthcare) using Langmuir 1:1 binding model.
In this example, SPR binding assays were performed to analyze binding activity of representative bivalent compounds of the present disclosure. The compounds of this example included a non-canonical binder component and a G4 stacker component. A BIAcore 3000 (GE Healthcare) instrument was used. A CM5 SPR biochip was used and primed with running buffer (10 mM Tris, pH7.0, 100 mM KCl, 0.005% Tween 20, 5% DMSO). To immobilize the compounds onto the chip surface, the flow rate was set as 5 μL/min. Then the carboxylated dextran on the chip surface was activated by EDC/NHS (0.4 M/0.1 M) aqueous solution for 15 min, followed with an injection of streptavidin (SA) solution (0.2 mg/mL in 10 mM sodium acetate buffer, pH 4.5) for 30 minutes. After the immobilization amount of SA, the surface was quenched by injecting 1 M ethanolamine (EA) aqueous solution (pH 8.5) for 10 min and regenerated with 10 mM NaOH for 2 min to remove the physical adsorption. Furthermore, biotinylated MYCN G4 DNA was prepared at 5 μM in the annealing buffer and heated up to 95° C. for 5 min followed with slowly cooling down to room temperature within 1 h. After annealing, a total of 150 μL solution was injected in the Fc 2 of SPR system for 30 min to immobilize DNA onto the chip surface. The compound solutions were then tested once the baseline was stable.
To detect the binding signal as well as the binding affinity, a higher flowing rate (25 μL/min) was used in both Fc 1 (blank) and Fc 2 (target). Each of the compound solutions was prepared at 20× designed the concentrations in DMSO, and then diluted into non-DMSO running buffer, resulting in a final concentration of 5% DMSO. Then, a total of 50 μL compound solution was injected in Fc 1-2 flow path for 120 s for association, followed with 200 s running of buffer for dissociation. An injection of 50 μL regeneration buffer (1 M KCl) could be performed between two samples if necessary. The final binding curve was obtained by referencing the blank channel (Fc 1). […]

dsDNA = assay: CD melting test of dsDNA; type: binding; settings: CD melting of dsDNA with compound
[3] = MYCN G4, Langmuir 1:1 model, read-out: SPR KD

Compound	increase of Tm (ΔTm) of MYCN G4 (MYCN G4 DNA [1])	ΔTm of MYCN G4 at 40 μM (MYCN G4 DNA [1]; 40 μM MY-1, versus 20 μM)	Kd (MYCN G4 DNA [2]; [3])	positive binding in SPR (SNR>3) (MYCN G4 DNA [2])	effect on dsDNA melting (dsDNA)	ΔTm of MYCN G4 (MYCN G4 DNA [1]; 10 mM sodium phosphate pH 7.0, 5 mM KCl, 5 μM DNA)	Kd (MYCN G4 DNA [2]; MYCN hairpin G4, SPR titration, read-out: KD by SPR)
COc1ccc(-c2noc(-c3ccc(NCCCN4CCCC4)nn3)n2)cc1 [MY-1, 6-(3-(4-methoxyphenyl)-1,2,4-oxadiazol-5-yl)-N-(3-(pyrrolidin-1-yl)propyl)pyridazin-3-amine]	3.7±0.5 °C	not significantly increased	3600 ± 2400 nM	hits	Neither of the compounds showed a measurable effect	–	–
COc1ccc(-c2noc(-c3ccc(NCCCNc4c5ccc(Cl)cc5nc5ccc(OC)cc45)nn3)n2)cc1 [B33, N^1-(6-chloro-2-methoxyacridin-9-yl)-N^3-(6-(3-(4-methoxyphenyl)-1,2,4-oxadiazol-5-yl)pyridazin-3-yl)propane-1,3-diamine]	–	–	–	–	–	6.4 °C	70 ± 13 nM
COc1ccc(-c2noc(-c3ccc(NCCCN4CCCCCC4)nn3)n2)cc1 [MY-8, N-(3-(azepan-1-yl)propyl)-6-(3-(4-methoxyphenyl)-1,2,4-oxadiazol-5-yl)pyridazin-3-amine]	–	–	1500 ± 300 nM	–	–	–	–
CCCN1CCN(c2nnc(-n3cccc3CNCCCN3CCCCCC3)s2)CC1 [Compound 1]	4.7±0.7 °C	–	11700 ± 2600 nM	hits	Neither of the compounds showed a measurable effect	–	–
